Reference: ChEMBL document CHEMBL1201862, “PubChem BioAssay data set” (2004)
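In this assay, cells in 96-well plates receive the compound at five concentrations for 48 hours. Endpoints are linearly interpolated between the surrounding concentrations. Here, GI50 denotes the concentration required for 50% inhibition of growth.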 Active and inactive are the calls of the source. No stated cut-off is given here; in the data, active = GI50 up to about 1.1 µM and inactive = higher.

Legend:
Assay in all cases: inhibition of tumour cell growth, NCI panel, 48 h
[1] = system: ACHN
[2] = system: HCC 2998
[3] = system: HL-60
[4] = system: HOP-62
[5] = system: MCF7
[6] = system: MDA-MB-435
[7] = system: Malme-3M
[8] = system: NCI-H226
[9] = system: NCI-H522
[10] = system: OVCAR-3
[11] = system: OVCAR-4
[12] = system: RXF 393
[13] = system: SF-295
[14] = system: SK-MEL-28
[15] = system: SK-MEL-2
[16] = system: SR
[17] = system: T47D
[18] = system: U-251
[19] = system: UACC-62
[20] = system: SF-539

Measured: GI50

O=C1CCc2ccccc2O1 [DIHYDROCOUMARIN]
inactive: [1] > 100 µM | [2] > 100 µM | [3] > 100 µM | [4] > 100 µM | [5] > 100 µM | [6] > 100 µM | [7] > 100 µM | [8] > 100 µM | [9] > 100 µM | [10] > 100 µM | [11] > 100 µM | [12] > 100 µM | [13] > 100 µM | [14] > 100 µM | [15] > 100 µM | [16] > 100 µM | [17] > 100 µM | [18] > 100 µM | [19] > 100 µM

C/C(=N/Nc1nc(C)cc(O)n1)C(=O)O
inactive: [1] > 100 µM | [2] > 100 µM | [3] > 100 µM | [4] > 100 µM | [5] > 100 µM | [6] > 100 µM | [7] > 100 µM | [8] > 100 µM | [9] > 100 µM | [10] > 100 µM | [11] > 100 µM | [12] > 100 µM | [13] > 100 µM | [14] > 100 µM | [15] > 100 µM | [16] > 100 µM | [17] > 100 µM | [18] > 100 µM | [19] > 100 µM

COC(=O)NC1=NNC(=O)c2ccccc2N1
inactive: [1] > 100 µM | [2] > 100 µM | [3] > 100 µM | [4] > 100 µM | [5] > 100 µM | [6] > 100 µM | [8] > 100 µM | [9] > 100 µM | [10] > 100 µM | [11] > 100 µM | [12] > 100 µM | [13] > 100 µM | [20] > 100 µM | [14] > 100 µM | [15] > 100 µM | [16] > 100 µM | [17] > 100 µM | [18] > 100 µM | [19] > 100 µM

Oc1c(Br)cc(CN(Cc2cc(Br)c(O)c(Br)c2)C2CCCCC2)cc1Br
inactive: [1] > 100 µM | [3] > 100 µM | [4] > 100 µM | [5] > 100 µM | [6] > 100 µM | [7] > 100 µM | [8] > 100 µM | [9] > 100 µM | [10] > 100 µM | [11] > 100 µM | [12] > 100 µM | [13] > 100 µM | [14] > 100 µM | [15] > 100 µM | [16] > 100 µM | [17] > 100 µM | [18] > 100 µM | [19] > 100 µM

FC1=C2CCCCCC2SC1(F)F (stereo unspecified)
inactive: [1] 29.8 µM | [2] > 100 µM | [3] 12.7 µM | [5] 71.9 µM | [6] 26.4 µM | [7] 21.9 µM | [8] > 100 µM | [9] 15.6 µM | [10] > 100 µM | [11] > 100 µM | [12] 13.3 µM | [13] > 100 µM | [14] > 100 µM | [15] > 100 µM | [16] 20.1 µM | [17] > 100 µM | [19] > 100 µM

CC(C)C(Br)C(=O)NCC(=O)O (stereo unspecified)
inactive: [1] > 100 µM | [4] > 100 µM | [5] > 100 µM | [6] > 100 µM | [7] > 100 µM | [8] > 100 µM | [9] > 100 µM | [10] > 100 µM | [11] > 100 µM | [12] > 100 µM | [13] > 100 µM | [20] > 100 µM | [14] > 100 µM | [15] > 100 µM | [16] > 100 µM | [17] > 100 µM | [18] > 100 µM | [19] > 100 µM
active: [3] 0.245 µM

CC(=O)c1ccc2c(c1)CC1(C2)Cc2cc3c(c(C(=O)O)c2C1)CCC3 (stereo unspecified)
inactive: [1] 68.1 µM | [2] > 100 µM | [3] > 100 µM | [4] > 100 µM | [5] > 100 µM | [6] > 100 µM | [7] 53.1 µM | [8] > 100 µM | [9] 79.6 µM | [10] 92.5 µM | [11] 78.7 µM | [12] > 100 µM | [13] > 100 µM | [20] > 100 µM | [14] > 100 µM | [16] 71.6 µM | [17] 53.5 µM | [18] 55.8 µM | [19] 72.1 µM

O=C(O)CNC(=O)c1ccc2cc(C(=O)N3CC(CCl)c4ccc([N+](=O)[O-])cc43)[nH]c2c1 (stereo unspecified)
inactive: [1] > 100 µM | [3] > 100 µM | [5] > 100 µM | [6] > 100 µM | [8] > 100 µM | [9] > 100 µM | [10] > 100 µM | [11] > 100 µM | [12] > 100 µM | [13] > 100 µM | [20] > 100 µM | [15] > 100 µM | [16] > 100 µM | [17] > 100 µM | [18] > 100 µM | [19] > 100 µM
